Experimental data reported in ChEMBL document CHEMBL3758105 (J Med Chem, 2016).

Key:
Cynomolgus monkey [1] = assay: Nephrotoxicity in cynomolgus monkey at 50 to 1000 mg/kg/day, po administered for 14 days; format: toxicity, organism-based, Macaca fascicularis; conditions: in vivo, 336 h
Cytochrome P450 1A2 = biological target: T1, Cytochrome P450 1A2 (Homo sapiens, UniProt P05177); assay: Inhibition of CYP1A2 (unknown origin); format: ADME
T1 sequence (P05177 whole entry): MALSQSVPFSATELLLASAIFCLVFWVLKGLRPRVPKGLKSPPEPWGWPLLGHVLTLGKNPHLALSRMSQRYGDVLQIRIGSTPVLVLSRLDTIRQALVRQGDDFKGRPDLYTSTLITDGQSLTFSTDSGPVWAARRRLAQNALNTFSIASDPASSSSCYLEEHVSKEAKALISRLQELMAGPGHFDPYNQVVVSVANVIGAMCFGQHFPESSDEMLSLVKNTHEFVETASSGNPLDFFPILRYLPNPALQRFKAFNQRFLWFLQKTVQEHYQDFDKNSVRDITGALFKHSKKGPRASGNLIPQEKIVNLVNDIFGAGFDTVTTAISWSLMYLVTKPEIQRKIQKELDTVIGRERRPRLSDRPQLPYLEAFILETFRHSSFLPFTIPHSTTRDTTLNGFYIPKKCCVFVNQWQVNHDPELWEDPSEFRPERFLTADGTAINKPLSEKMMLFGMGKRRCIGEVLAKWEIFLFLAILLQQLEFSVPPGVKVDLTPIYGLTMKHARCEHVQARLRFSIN

Collagenase 3 = Collagenase 3 (Homo sapiens, UniProt P45452); assay: Inhibition of full length human recombinant MMP13 using MCA-Arg-Pro-Leu-Gly-Leu-Dpa-Ala-Arg-Glu-Arg-NH2 as substrate preincubated for 60 mins followed by substrate addition by fluorescence assay
[2] = Intrinsic clearance in human liver microsomes measured over 40 mins by HPLC/MS analysis; format: ADME; conditions: read-out: CLH
[3] = Clearance in Sprague-Dawley rat at 1 mg/kg, iv administered as bolus dose by LC-MS/MS analysis; format: ADME, organism-based; conditions: in vivo
[4] = Oral bioavailability in Sprague-Dawley rat at 1 mg/kg; format: ADME, organism-based; conditions: in vivo
Cytochrome P450 2D6 = Cytochrome P450 2D6 (Homo sapiens, UniProt P10635); assay: Inhibition of CYP2D6 (unknown origin); format: ADME
Cytochrome P450 2D6, sequence (P10635 whole entry): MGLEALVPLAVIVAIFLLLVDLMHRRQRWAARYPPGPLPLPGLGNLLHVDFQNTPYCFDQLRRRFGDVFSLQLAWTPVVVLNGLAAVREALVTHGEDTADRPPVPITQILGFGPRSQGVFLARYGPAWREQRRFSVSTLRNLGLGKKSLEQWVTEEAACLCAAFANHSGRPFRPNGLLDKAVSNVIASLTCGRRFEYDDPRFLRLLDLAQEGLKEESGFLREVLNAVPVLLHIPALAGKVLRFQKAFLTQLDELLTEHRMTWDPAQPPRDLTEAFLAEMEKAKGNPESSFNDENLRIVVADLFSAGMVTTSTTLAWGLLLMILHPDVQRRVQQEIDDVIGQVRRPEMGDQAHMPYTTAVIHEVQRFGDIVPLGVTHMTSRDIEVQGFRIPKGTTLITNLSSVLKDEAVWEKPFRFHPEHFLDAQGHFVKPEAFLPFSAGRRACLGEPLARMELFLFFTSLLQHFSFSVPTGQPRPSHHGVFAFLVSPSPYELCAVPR

Cytochrome P450 3A4 = Cytochrome P450 3A4 (Homo sapiens, UniProt P08684); assay: Inhibition of CYP3A4 (unknown origin); format: ADME
Cytochrome P450 3A4, sequence (P08684 whole entry): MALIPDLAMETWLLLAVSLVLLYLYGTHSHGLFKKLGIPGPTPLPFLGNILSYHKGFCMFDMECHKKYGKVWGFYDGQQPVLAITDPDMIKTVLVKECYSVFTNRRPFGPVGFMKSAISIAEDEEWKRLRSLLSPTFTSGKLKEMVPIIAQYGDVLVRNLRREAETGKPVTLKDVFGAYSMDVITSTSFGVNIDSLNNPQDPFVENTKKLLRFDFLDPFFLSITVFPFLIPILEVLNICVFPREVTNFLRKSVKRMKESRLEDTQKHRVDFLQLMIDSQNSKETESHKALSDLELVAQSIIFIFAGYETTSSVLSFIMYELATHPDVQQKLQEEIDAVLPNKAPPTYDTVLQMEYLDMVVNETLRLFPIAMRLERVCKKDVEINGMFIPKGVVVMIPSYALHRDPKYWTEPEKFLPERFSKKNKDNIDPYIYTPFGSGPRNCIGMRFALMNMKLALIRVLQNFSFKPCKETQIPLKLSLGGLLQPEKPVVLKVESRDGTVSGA

[5] = Clearance in cynomolgus monkey at 1 mg/kg, po and iv; format: ADME, organism-based, Macaca fascicularis; conditions: in vivo
[6] = Oral bioavailability in cynomolgus monkey at 1 mg/kg; format: ADME, organism-based, Macaca fascicularis; conditions: in vivo
Rattus norvegicus = assay: Drug metabolism in Sprague-Dawley rat assessed as (2S,5S)-5-((5-(6-((4-Fluoro-3-methoxybenzyl)carbamoyl)-2-methylpyrimidin-4-yl)-2H-tetrazol-2-yl)methyl)-1,4-dioxane-2-carboxylic acid formation at 1 mg/kg, po; format: ADME, organism-based; conditions: in vivo
Cynomolgus monkey [7] = assay: Drug metabolism in cynomolgus monkey assessed as (2S,5S)-5-((5-(6-((4-Fluoro-3-methoxybenzyl)carbamoyl)-2-methylpyrimidin-4-yl)-2H-tetrazol-2-yl)methyl)-1,4-dioxane-2-carboxylic acid formation at 1 mg/kg, po; format: ADME, organism-based, Macaca fascicularis; conditions: in vivo
Hepatocyte [8] = assay: Drug metabolism in human hepatocytes assessed as (2S,5S)-5-((5-(6-((4-Fluoro-3-methoxybenzyl)carbamoyl)-2-methylpyrimidin-4-yl)-2H-tetrazol-2-yl)methyl)-1,4-dioxane-2-carboxylic acid formation; format: ADME, cell-based
Hepatocyte [9] = assay: Drug metabolism in human hepatocytes assessed as demethylation; format: ADME, cell-based
Hepatocyte [10] = assay: Drug metabolism in human hepatocytes assessed as methyl oxidation; format: ADME, cell-based
Hepatocyte [11] = assay: Drug metabolism in human hepatocytes assessed as glucuronidation; format: ADME, cell-based
Hepatocyte [12] = assay: Drug metabolism in human hepatocytes assessed as sulfate conjugation; format: ADME, cell-based
[13] = Drug metabolism in cynomolgus monkey hepatocytes assessed as (2S,5S)-5-((5-(6-((4-Fluoro-3-methoxybenzyl)carbamoyl)-2-methylpyrimidin-4-yl)-2H-tetrazol-2-yl)methyl)-1,4-dioxane-2-carboxylic acid formation; format: ADME, cell-based, Macaca fascicularis, Hepatocyte
[14] = Drug metabolism in cynomolgus monkey hepatocytes assessed as demethylation; format: ADME, cell-based, Macaca fascicularis, Hepatocyte
[15] = Drug metabolism in cynomolgus monkey hepatocytes assessed as methyl oxidation; format: ADME, cell-based, Macaca fascicularis, Hepatocyte
[16] = Drug metabolism in cynomolgus monkey hepatocytes assessed as glucuronidation; format: ADME, cell-based, Macaca fascicularis, Hepatocyte
[17] = Drug metabolism in cynomolgus monkey hepatocytes assessed as sulfate conjugation; format: ADME, cell-based, Macaca fascicularis, Hepatocyte
[18] = Drug metabolism in cynomolgus monkey urine assessed as (2S,5S)-5-((5-(6-((4-Fluoro-3-methoxybenzyl)carbamoyl)-2-methylpyrimidin-4-yl)-2H-tetrazol-2-yl)methyl)-1,4-dioxane-2-carboxylic acid formation; format: ADME, tissue-based, Macaca fascicularis
[19] = Drug metabolism in cynomolgus monkey urine assessed as demethylation; format: ADME, tissue-based, Macaca fascicularis
[20] = Drug metabolism in cynomolgus monkey urine assessed as methyl oxidation; format: ADME, tissue-based, Macaca fascicularis
[21] = Drug metabolism in cynomolgus monkey urine assessed as glucuronidation; format: ADME, tissue-based, Macaca fascicularis
[22] = Drug metabolism in cynomolgus monkey urine assessed as sulfate conjugation; format: ADME, Macaca fascicularis
[23] = Clearance in beagle dog at 1 mg/kg, po and iv; format: ADME, organism-based, Canis lupus familiaris; conditions: in vivo
[24] = Oral bioavailability in beagle dog at 1 mg/kg; format: ADME, organism-based, Canis lupus familiaris; conditions: in vivo
Cytochrome P450 2C9 = Cytochrome P450 2C9 (Homo sapiens, UniProt P11712); assay: Inhibition of CYP2C9 in human liver microsomes assessed as reduction of diclofenac metabolism after 8 mins; format: ADME
Cytochrome P450 2C9, sequence (P11712 whole entry, the tested form may be a part): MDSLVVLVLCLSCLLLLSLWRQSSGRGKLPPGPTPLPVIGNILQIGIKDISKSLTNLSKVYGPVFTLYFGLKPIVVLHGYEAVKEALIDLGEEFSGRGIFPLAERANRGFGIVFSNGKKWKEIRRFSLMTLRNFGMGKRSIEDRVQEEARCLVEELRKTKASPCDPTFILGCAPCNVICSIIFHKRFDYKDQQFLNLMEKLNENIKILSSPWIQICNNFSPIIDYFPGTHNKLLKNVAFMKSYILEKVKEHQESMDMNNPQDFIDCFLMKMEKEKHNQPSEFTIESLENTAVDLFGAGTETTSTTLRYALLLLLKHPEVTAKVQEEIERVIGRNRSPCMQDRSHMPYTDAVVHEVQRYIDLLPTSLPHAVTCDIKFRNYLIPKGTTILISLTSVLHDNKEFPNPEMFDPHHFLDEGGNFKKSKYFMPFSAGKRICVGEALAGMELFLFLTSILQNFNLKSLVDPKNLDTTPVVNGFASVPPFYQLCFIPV

Stromelysin-1 = Stromelysin-1 (Homo sapiens, UniProt P08254); assay: Inhibition of MMP3 (unknown origin) catalytic domain using MCA-Arg-Pro-Leu-Gly-Leu-Dpa-Ala-Arg-Glu-Arg-NH2 as substrate preincubated for 60 mins followed by substrate addition by fluorescence assay
Stromelysin-1, sequence (P08254 whole entry, the tested form may be a part): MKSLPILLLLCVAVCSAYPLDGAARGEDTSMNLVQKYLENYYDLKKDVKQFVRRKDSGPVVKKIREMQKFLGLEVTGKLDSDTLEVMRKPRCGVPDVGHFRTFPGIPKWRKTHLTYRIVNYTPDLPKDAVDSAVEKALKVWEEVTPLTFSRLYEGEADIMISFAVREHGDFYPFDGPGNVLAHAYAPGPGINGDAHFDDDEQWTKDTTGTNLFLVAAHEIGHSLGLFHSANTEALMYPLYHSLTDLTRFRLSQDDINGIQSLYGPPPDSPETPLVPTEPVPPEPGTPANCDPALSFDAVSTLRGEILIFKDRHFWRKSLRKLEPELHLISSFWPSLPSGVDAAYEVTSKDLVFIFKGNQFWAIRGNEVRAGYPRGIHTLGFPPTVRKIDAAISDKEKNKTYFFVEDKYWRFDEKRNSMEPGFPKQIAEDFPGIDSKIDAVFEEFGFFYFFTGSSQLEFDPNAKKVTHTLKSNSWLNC

## COc1cc(CNC(=O)c2cc(-c3nnn(C[C@H]4CO[C@H](CO)CO4)n3)nc(C)n2)ccc1F
Cynomolgus monkey [1]
  Activity: Non-toxic
Cytochrome P450 1A2
  IC50: > 30 µM
Collagenase 3
  Ki: 0.0015 µM
[2]
  microsomal CLint: < 8 µL/min/mg
[3]
  clearance: 18.2 mL/min/kg
[4]
  bioavailability: 95%
Cytochrome P450 2D6
  IC50: > 30 µM
Cytochrome P450 3A4
  IC50: > 30 µM
[5]
  clearance: 2.1 mL/min/kg
[6]
  bioavailability: 88%
Rattus norvegicus
  Drug metabolism: metabolite_detected
Cynomolgus monkey [7]
  Drug metabolism: metabolite_detected
Hepatocyte [8]
  Drug metabolism: metabolite_detected
Hepatocyte [9]
  Drug metabolism: metabolite_detected
Hepatocyte [10]
  Drug metabolism: metabolite_detected
Hepatocyte [11]
  Drug metabolism: metabolite_detected
Hepatocyte [12]
  Drug metabolism: metabolite_detected
[13]
  Drug metabolism: metabolite_detected
[14]
  Drug metabolism: metabolite_detected
[15]
  Drug metabolism: metabolite_detected
[16]
  Drug metabolism: metabolite_detected
[17]
  Drug metabolism: metabolite_detected
[18]
  Drug metabolism: metabolite_detected
[19]
  Drug metabolism: metabolite_detected
[20]
  Drug metabolism: metabolite_detected
[21]
  Drug metabolism: metabolite_detected
[22]
  Drug metabolism: metabolite_detected
[23]
  clearance: 8.2 mL/min/kg
[24]
  bioavailability: 64%
Cytochrome P450 2C9
  IC50: > 30 µM
Stromelysin-1
  Ki: > 10 µM
